Measurements: US8569281B2, “Compounds and their administration for treating a neurodegenerative disease as well as a method for identifying a compound capable of inhibiting a kinase, such as LRRK” (Medical Research Council Technology, priority 2010, dated 2013)

Target: LRRK2 (Homo sapiens (Human), UniProt Q5S007)
Experiment: In Vitro LRRK2 Assay (LabChip 3000, fluorescently-labeled peptide substrate)
Type: biochemical
Details: ATP 130 μM, substrate 1 μM, 2 hours, ambient temperature; LRRK2 variant not given; read-out: Ki (μM), affinity values for LRRK2

Chain of LRRK2 (Q5S007 whole entry G2019S): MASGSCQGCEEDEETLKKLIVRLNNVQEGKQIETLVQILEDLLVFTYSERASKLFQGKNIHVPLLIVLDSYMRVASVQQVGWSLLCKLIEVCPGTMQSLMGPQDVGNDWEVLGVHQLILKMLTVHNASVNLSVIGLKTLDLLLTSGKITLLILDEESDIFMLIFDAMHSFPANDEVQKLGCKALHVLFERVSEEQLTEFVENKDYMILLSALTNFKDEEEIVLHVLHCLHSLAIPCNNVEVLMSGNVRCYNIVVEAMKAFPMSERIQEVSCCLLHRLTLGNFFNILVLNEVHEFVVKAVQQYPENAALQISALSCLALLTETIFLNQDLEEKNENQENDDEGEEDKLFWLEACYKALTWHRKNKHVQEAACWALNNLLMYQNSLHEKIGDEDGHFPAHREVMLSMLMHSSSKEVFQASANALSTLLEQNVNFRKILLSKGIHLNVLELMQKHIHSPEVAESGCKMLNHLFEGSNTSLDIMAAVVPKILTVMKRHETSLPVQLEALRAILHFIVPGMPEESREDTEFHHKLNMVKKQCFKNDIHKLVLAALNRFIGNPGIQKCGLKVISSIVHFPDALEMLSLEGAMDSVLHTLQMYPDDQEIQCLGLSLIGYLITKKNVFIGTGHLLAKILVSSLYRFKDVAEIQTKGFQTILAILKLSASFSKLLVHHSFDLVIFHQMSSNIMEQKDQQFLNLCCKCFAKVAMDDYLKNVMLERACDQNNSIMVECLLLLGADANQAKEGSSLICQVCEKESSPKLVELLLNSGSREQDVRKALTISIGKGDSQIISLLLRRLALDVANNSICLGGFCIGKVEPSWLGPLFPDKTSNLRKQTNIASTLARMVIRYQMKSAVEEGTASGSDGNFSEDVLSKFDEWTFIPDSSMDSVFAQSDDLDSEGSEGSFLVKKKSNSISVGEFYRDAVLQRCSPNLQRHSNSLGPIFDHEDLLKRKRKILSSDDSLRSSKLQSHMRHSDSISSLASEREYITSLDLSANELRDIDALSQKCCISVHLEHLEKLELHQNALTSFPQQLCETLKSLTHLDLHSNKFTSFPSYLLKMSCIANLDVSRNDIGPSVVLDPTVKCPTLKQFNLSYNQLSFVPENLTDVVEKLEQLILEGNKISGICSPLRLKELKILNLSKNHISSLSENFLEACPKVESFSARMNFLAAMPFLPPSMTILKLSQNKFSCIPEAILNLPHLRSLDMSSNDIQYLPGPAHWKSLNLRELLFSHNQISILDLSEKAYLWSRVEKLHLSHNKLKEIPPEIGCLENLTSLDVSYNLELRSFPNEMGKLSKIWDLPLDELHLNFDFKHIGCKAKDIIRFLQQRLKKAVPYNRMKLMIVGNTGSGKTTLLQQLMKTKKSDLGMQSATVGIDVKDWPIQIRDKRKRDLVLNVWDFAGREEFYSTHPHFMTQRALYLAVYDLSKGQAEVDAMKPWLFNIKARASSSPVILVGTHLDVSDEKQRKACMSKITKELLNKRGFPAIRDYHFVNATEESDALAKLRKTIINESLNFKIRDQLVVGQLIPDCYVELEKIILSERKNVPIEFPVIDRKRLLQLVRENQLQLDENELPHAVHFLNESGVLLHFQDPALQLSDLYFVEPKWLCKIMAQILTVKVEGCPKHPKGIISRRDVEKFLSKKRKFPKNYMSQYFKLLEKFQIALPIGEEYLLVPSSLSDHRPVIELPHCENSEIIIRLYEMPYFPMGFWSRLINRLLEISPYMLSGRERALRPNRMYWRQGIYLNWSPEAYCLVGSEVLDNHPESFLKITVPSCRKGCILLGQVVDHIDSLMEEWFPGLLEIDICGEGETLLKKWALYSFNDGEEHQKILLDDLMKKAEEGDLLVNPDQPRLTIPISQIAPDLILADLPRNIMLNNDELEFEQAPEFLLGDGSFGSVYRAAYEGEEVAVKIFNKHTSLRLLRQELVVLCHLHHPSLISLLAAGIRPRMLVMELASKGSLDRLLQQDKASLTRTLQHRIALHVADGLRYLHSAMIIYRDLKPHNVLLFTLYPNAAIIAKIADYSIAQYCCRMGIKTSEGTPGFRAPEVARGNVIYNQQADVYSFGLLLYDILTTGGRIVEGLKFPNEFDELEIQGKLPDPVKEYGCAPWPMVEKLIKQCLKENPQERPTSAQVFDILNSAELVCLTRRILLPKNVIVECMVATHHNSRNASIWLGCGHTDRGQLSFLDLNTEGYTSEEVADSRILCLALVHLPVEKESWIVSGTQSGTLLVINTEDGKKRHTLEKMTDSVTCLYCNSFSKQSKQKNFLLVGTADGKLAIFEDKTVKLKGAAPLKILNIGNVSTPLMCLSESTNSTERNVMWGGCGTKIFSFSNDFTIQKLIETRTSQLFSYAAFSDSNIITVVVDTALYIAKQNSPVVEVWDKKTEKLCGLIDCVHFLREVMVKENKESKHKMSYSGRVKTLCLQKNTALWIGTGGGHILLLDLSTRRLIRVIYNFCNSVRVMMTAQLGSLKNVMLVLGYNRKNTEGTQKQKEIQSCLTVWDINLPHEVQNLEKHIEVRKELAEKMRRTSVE

Row | Ki [µM] | Compound
1 | 0.209 | COc1nccc2n[nH]c(-c3ccc(C(=O)N4CCOCC4)c(Cl)c3)c12 [Example 109, (2-Chloro-4-(4-methoxy-1H-pyrazolo[4,3-c]pyridin-3-yl)phenyl)(morpholino)methanone]
2 | 0.165 | c1cc(Nc2[nH]nc3ccnc(OC4CCOCC4)c23)ccn1 [Example 163, N-(Pyridin-4-yl)-4-(tetrahydro-2H-pyran-4-yloxy)-1H-pyrazolo[4,3-c]pyridin-3-amine]
3 | 0.199 | CNC(=O)c1cccc(-c2[nH]nc3cc(C)nc(OC)c23)c1 [Example 235, 3-(4-methoxy-6-methyl-1H-pyrazolo[4,3-c]pyridin-3-yl)-N-methylbenzamide]
4 | 0.046 | c1ncc(-c2cc(-c3n[nH]c4ccnc(OC5CCOCC5)c34)ccn2)cn1 [Example 199, 3-(2-(pyrimidin-5-yl)pyridin-4-yl)-4-(tetrahydro-2H-pyran-4-yloxy)-1H-pyrazolo[4,3-c]pyridine]
5 | 0.013 | c1cc2[nH]nc(-c3ccc4cn[nH]c4c3)c2c(OC2CCOCC2)n1 [Example 138, 3-(1H-Indazol-6-yl)-4-(tetrahydro-2H-pyran-4-yloxy)-1H-pyrazolo[4,3-c]pyridine]
6 | 0.172 | N#Cc1cncc(-c2n[nH]c3ccnc(OC4CCOCC4)c23)c1 [Example 156]
7 | 0.042 | COc1nccc2[nH]nc(-c3ccnc(-c4cnn(C)c4)c3)c12 [Example 121, 4-Methoxy-3-(2-(1-methyl-1H-pyrazol-4-yl)pyridin-4-yl)-1H-pyrazolo[4,3-c]pyridine]
8 | 0.076 | O=C(c1ccc(-c2[nH]nc3ccnc(OC4CCOCC4)c23)cc1)N1CCOCC1 [Example 133, Morpholino(4-(4-(tetrahydro-2H-pyran-4-yloxy)-1H-pyrazolo[4,3-c]pyridin-3-yl)phenyl)methanone]
9 | 0.031 | COc1nccc2[nH]nc(-c3cnn(C4COC4)c3)c12 [Example 86]
10 | 0.003 | c1cc(-c2n[nH]c3ccnc(OC4CCOCC4)c23)cc(N2CCCC2)n1 [Example 110, 3-(2-(Pyrrolidin-1-yl)pyridin-4-yl)-4-(tetrahydro-2H-pyran-4-yloxy)-1H-pyrazolo[4,3-c]pyridine]
11 | 0.003 | c1cc2[nH]nc(-c3cnn([C@H]4CCOC4)c3)c2c(OC2CCOCC2)n1 [Example 147, (S)-4-(tetrahydro-2H-pyran-4-yloxy)-3-(1-(tetrahydrofuran-3-yl)-1H-pyrazol-4-yl)-1H-pyrazolo[4,3-c]pyridine]
12 | 0.017 | N#CCc1cccc(-c2[nH]nc3ccnc(OC4CCOCC4)c23)c1 [Example 151, 2-(3-(4-(Tetrahydro-2H-pyran-4-yloxy)-1H-pyrazolo[4,3-c]pyridin-3-yl)phenyl)acetonitrile]
13 | 0.005 | Clc1ccccc1C#Cc1[nH]nc2ccnc(OC3CCOCC3)c12 [Example 132, 3-((2-Chlorophenyl)ethynyl)-4-(tetrahydro-2H-pyran-4-yloxy)-1H-pyrazolo[4,3-c]pyridine]
14 | 0.008 | CC(C)n1cc(-c2n[nH]c3ccnc(OC4CCOCC4)c23)cc1C(=O)N1CCC1 [Example 218, Azetidin-1-yl-{1-isopropyl-4-[4-(tetrahydro-pyran-4-yloxy)-1H-pyrazolo[4,3-c]pyridin-3-yl]-1H-pyrrol-2-yl}-methanone]
15 | 0.024 | c1cc2n[nH]c(C3CC3)c2c(OC2CCCCC2)n1 [Example 26, 4-(Cyclohexyloxy)-3-cyclopropyl-1H-pyrazolo[4,3-c]pyridine]
16 | 0.036 | Cn1cnc2cc(-c3n[nH]c4ccnc(OC5CCOCC5)c34)ccc21 [Example 145, 3-(1-methyl-1H-benzo[d]imidazol-5-yl)-4-(tetrahydro-2H-pyran-4-yloxy)-1H-pyrazolo[4,3-c]pyridine]
17 | 0.448 | c1cc(-c2n[nH]c3ccnc(OC4CCOCC4)c23)c2cc[nH]c2c1 [Example 158, 3-(1H-Indol-4-yl)-4-(tetrahydro-2H-pyran-4-yloxy)-1H-pyrazolo[4,3-c]pyridine]
18 | 0.018 | CC(C)Oc1nccc2[nH]nc(-c3cc(C(=O)N(C)C)n(C(C)C)c3)c12 [Example 54, 4-(4-isopropoxy-1H-pyrazolo[4,3-c]pyridine-3-yl)-1-isopropyl-N,N-dimethyl-1H-pyrrole-2-carboxamide]
19 | 0.221 | O=C(c1cc(-c2n[nH]c3ccnc(OC4CCOCC4)c23)ccn1)N1CCOCC1 [Example 73, Morpholino(4-(4-(tetrahydro-2H-pyran-4-yloxy)-1H-pyrazolo[4,3-c]pyridin-3-yl)pyridin-2-yl)methanone]
